Laboratory results reported in PubChem BioAssay AID256 (DTP/NCI, 2004).
Values joined by “and” are separate entries in the source; they are usually repeats but may differ in a detail not shown here. Identical values can stand only once. Toxic doses and inconclusive results are not listed. The calls were made as follows: active = survival T/C of 150% or more; inactive = T/C below 125% in these data.

System: CD2F1 mice, L1210 leukemia ip, survival T/C
Assay: NCI In Vivo Anticancer Drug Screen. Data for tumor model L1210 Leukemia (intraperitoneal) in CD2F1 (CDF1) mice
Details: endpoint: mean survival time, higher = longer survival
Procedure, shortened: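 Compound-dosed mice with transplantable tumor versus matched vehicle controls; endpoint ratio T/C reported.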

[1] = dose: 25.0 mg/kg/injection, schedule: Q04DX003 (ip), vehicle: saline with Tween-80
[2] = dose: 100.0 mg/kg/injection, schedule: Q04DX002 (ip), vehicle: saline with Tween-80
[3] = dose: 100.0 mg/kg/injection, schedule: Q04DX003 (ip), vehicle: saline with Tween-80
[4] = dose: 200.0 mg/kg/injection, schedule: Q04DX002 (ip), vehicle: saline with Tween-80
[5] = dose: 200.0 mg/kg/injection, schedule: Q04DX003 (ip), vehicle: saline with Tween-80
[6] = dose: 400.0 mg/kg/injection, schedule: Q04DX002 (ip), vehicle: saline with Tween-80
[7] = dose: 400.0 mg/kg/injection, schedule: Q04DX003 (ip), vehicle: saline with Tween-80
[8] = dose: 75.0 mg/kg/injection, schedule: Q01DX001 (ip), vehicle: saline

Measured: T/C

CCC(c1ccc(OC(=O)Cc2ccc(N(CCCl)CCCl)cc2)cc1)C(CC)c1ccc(OC(=O)Cc2ccc(N(CCCl)CCCl)cc2)cc1 (centres undefined)
inactive: dose: 3.1 mg/kg/injection, schedule: Q03HX016 (ip), vehicle: saline with Tween-80 94 % of control | dose: 3.1 mg/kg/injection, schedule: Q03HX024 (ip), vehicle: saline with Tween-80 100 % of control | dose: 6.3 mg/kg/injection, schedule: Q03HX008 (ip), vehicle: saline with Tween-80 88 % of control | dose: 6.3 mg/kg/injection, schedule: Q03HX024 (ip), vehicle: saline with Tween-80 91 % of control | dose: 12.5 mg/kg/injection, schedule: Q01DX009 (ip), vehicle: saline with Tween-80 88 % of control | dose: 12.5 mg/kg/injection, schedule: Q01DX009 (sc), vehicle: saline with Tween-80 100 % of control | dose: 12.5 mg/kg/injection, schedule: Q03HX024 (ip), vehicle: saline with Tween-80 88 % of control | dose: 25.0 mg/kg/injection, schedule: Q01DX001 (ip), vehicle: saline with Tween-80 94 % of control | dose: 25.0 mg/kg/injection, schedule: Q01DX001 (oral), vehicle: saline with Tween-80 103 % of control | dose: 25.0 mg/kg/injection, schedule: Q01DX001 (sc), vehicle: saline with Tween-80 91 % of control | dose: 25.0 mg/kg/injection, schedule: Q01DX009 (ip), vehicle: saline with Tween-80 90 % of control | dose: 25.0 mg/kg/injection, schedule: Q01DX009 (oral), vehicle: saline with Tween-80 114 % of control | dose: 25.0 mg/kg/injection, schedule: Q01DX009 (sc), vehicle: saline with Tween-80 100 % of control | dose: 25.0 mg/kg/injection, schedule: Q03HX024 (ip), vehicle: saline with Tween-80 88 % of control | [1] 91 % of control | dose: 25.0 mg/kg/injection, schedule: Q08DX002 (ip), vehicle: saline with Tween-80 88 % of control | dose: 50.0 mg/kg/injection, schedule: Q01DX001 (oral), vehicle: saline with Tween-80 105 % of control | dose: 50.0 mg/kg/injection, schedule: Q01DX001 (sc), vehicle: saline with Tween-80 88 % of control | dose: 50.0 mg/kg/injection, schedule: Q01DX009 (ip), vehicle: saline with Tween-80 88 % of control | dose: 50.0 mg/kg/injection, schedule: Q01DX009 (oral), vehicle: saline with Tween-80 94 % of control | dose: 50.0 mg/kg/injection, schedule: Q01DX009 (sc), vehicle: saline with Tween-80 97 % of control | dose: 50.0 mg/kg/injection, schedule: Q03HX016 (ip), vehicle: saline with Tween-80 88 % of control | dose: 50.0 mg/kg/injection, schedule: Q03HX024 (ip), vehicle: saline with Tween-80 88 % of control | dose: 50.0 mg/kg/injection, schedule: Q04DX003 (ip), vehicle: saline with Tween-80 88 % of control | dose: 50.0 mg/kg/injection, schedule: Q08DX002 (ip), vehicle: saline with Tween-80 90 % of control | dose: 80.0 mg/kg/injection, schedule: Q01DX005 (ip), vehicle: saline with Tween-80 96 % of control | dose: 80.0 mg/kg/injection, schedule: Q01DX009 (ip), vehicle: saline with Tween-80 93 % of control | dose: 100.0 mg/kg/injection, schedule: Q01DX001 (ip), vehicle: saline with Tween-80 90 % of control and 95 % of control | dose: 100.0 mg/kg/injection, schedule: Q01DX001 (oral), vehicle: saline with Tween-80 105 % of control | dose: 100.0 mg/kg/injection, schedule: Q01DX001 (sc), vehicle: saline with Tween-80 102 % of control | dose: 100.0 mg/kg/injection, schedule: Q01DX009 (ip), vehicle: saline with Tween-80 90 % of control | dose: 100.0 mg/kg/injection, schedule: Q01DX009 (oral), vehicle: saline with Tween-80 101 % of control | dose: 100.0 mg/kg/injection, schedule: Q01DX009 (sc), vehicle: saline with Tween-80 100 % of control | [2] 101 % of control | [3] 90 % of control | dose: 100.0 mg/kg/injection, schedule: Q08DX002 (ip), vehicle: saline with Tween-80 90 % of control | dose: 120.0 mg/kg/injection, schedule: Q01DX005 (ip), vehicle: saline with Tween-80 96 % of control | dose: 120.0 mg/kg/injection, schedule: Q01DX009 (ip), vehicle: saline with Tween-80 93 % of control | dose: 180.0 mg/kg/injection, schedule: Q01DX005 (ip), vehicle: saline with Tween-80 92 % of control | dose: 180.0 mg/kg/injection, schedule: Q01DX009 (ip), vehicle: saline with Tween-80 92 % of control | dose: 200.0 mg/kg/injection, schedule: Q01DX001 (ip), vehicle: saline with Tween-80 90 % of control | dose: 200.0 mg/kg/injection, schedule: Q01DX001 (oral), vehicle: saline with Tween-80 102 % of control | dose: 200.0 mg/kg/injection, schedule: Q01DX001 (sc), vehicle: saline with Tween-80 97 % of control | dose: 200.0 mg/kg/injection, schedule: Q01DX009 (ip), vehicle: saline with Tween-80 88 % of control | dose: 200.0 mg/kg/injection, schedule: Q01DX009 (oral), vehicle: saline with Tween-80 100 % of control | dose: 200.0 mg/kg/injection, schedule: Q01DX009 (sc), vehicle: saline with Tween-80 97 % of control | [4] 93 % of control | [5] 90 % of control | dose: 200.0 mg/kg/injection, schedule: Q08DX002 (ip), vehicle: saline with Tween-80 87 % of control | dose: 270.0 mg/kg/injection, schedule: Q01DX005 (ip), vehicle: saline with Tween-80 96 % of control | dose: 270.0 mg/kg/injection, schedule: Q01DX009 (ip), vehicle: saline with Tween-80 90 % of control | dose: 400.0 mg/kg/injection, schedule: Q01DX001 (ip), vehicle: saline with Tween-80 90 % of control | dose: 400.0 mg/kg/injection, schedule: Q01DX001 (oral), vehicle: saline with Tween-80 103 % of control | dose: 400.0 mg/kg/injection, schedule: Q01DX001 (sc), vehicle: saline with Tween-80 97 % of control | dose: 400.0 mg/kg/injection, schedule: Q01DX009 (oral), vehicle: saline with Tween-80 96 % of control | [6] 93 % of control | dose: 400.0 mg/kg/injection, schedule: Q08DX002 (ip), vehicle: saline with Tween-80 90 % of control | dose: 405.0 mg/kg/injection, schedule: Q01DX005 (ip), vehicle: saline with Tween-80 93 % of control | dose: 405.0 mg/kg/injection, schedule: Q01DX009 (ip), vehicle: saline with Tween-80 92 % of control | dose: 800.0 mg/kg/injection, schedule: Q01DX001 (ip), vehicle: saline with Tween-80 88 % of control and 90 % of control | dose: 800.0 mg/kg/injection, schedule: Q01DX001 (oral), vehicle: saline with Tween-80 97 % of control | dose: 800.0 mg/kg/injection, schedule: Q01DX001 (sc), vehicle: saline with Tween-80 90 % of control

N#C/C(=C\c1ccc(-c2ccccc2)cc1)c1ccccc1
inactive: [5] 86 % of control | [7] 95 % of control

CSc1sc2cc([N+](=O)[O-])ccc2[n+]1C
inactive: [8] 103 % of control

Cc1ccc(O)c(/C=N/NC(N)=S)n1
inactive: dose: 12.5 mg/kg/injection, schedule: Q03HX024 (ip), vehicle: saline 103 % of control | dose: 25.0 mg/kg/injection, schedule: Q03HX024 (ip), vehicle: saline 102 % of control | dose: 50.0 mg/kg/injection, schedule: Q03HX024 (ip), vehicle: saline 103 % of control

O=C=N/C=C/NC(=O)Nc1cccc(Cl)c1
inactive: [2] 104 % of control | [4] 93 % of control | [6] 101 % of control

CCOC(=N)c1cn(C2OC(CO)C(O)C2O)c2nc[nH]c(=O)c12 (centres undefined)
inactive: [8] 119 % of control

Cc1cc(CCl)c(C)cc1CCl
inactive: dose: 6.25 mg/kg/injection, schedule: Q04DX003 (ip), vehicle: saline with Tween-80 91 % of control | dose: 12.5 mg/kg/injection, schedule: Q04DX003 (ip), vehicle: saline with Tween-80 91 % of control | [1] 87 % of control | [3] 98 % of control

O=C(/C=C(/c1ccccc1)P(=O)(c1ccccc1)c1ccccc1)c1ccccc1
inactive: [3] 98 % of control | [5] 93 % of control | [7] 88 % of control

CC1(C)OC2C(C3N(c4ccccc4)CCN3c3ccccc3)OC(n3ccc(=O)[nH]c3=O)C2O1 (centres undefined)
inactive: dose: 12.5 mg/kg/injection, schedule: Q01DX005 (ip), vehicle: distilled water + Tween-80 97 % of control | dose: 25.0 mg/kg/injection, schedule: Q01DX005 (ip), vehicle: distilled water + Tween-80 94 % of control | dose: 50.0 mg/kg/injection, schedule: Q01DX005 (ip), vehicle: distilled water + Tween-80 94 % of control | dose: 100.0 mg/kg/injection, schedule: Q01DX005 (ip), vehicle: distilled water + Tween-80 91 % of control | dose: 200.0 mg/kg/injection, schedule: Q01DX005 (ip), vehicle: distilled water + Tween-80 96 % of control
